Experimental data from patent publication EP0767778B1, “1-PHENOXY-3-N-ALKYLAMINOPROPAN-2-OL HALOGEN DERIVATIVES USEFUL AS MYOCARDIAL beta [sequence] RECEPTOR MARKERS AND AS beta-BLOCKING AGENTS” (CIS BIO INTERNATIONAL, priority 1994, dated 1996).
Read-outs that look alike come from different tables or passages of the source.

How the values were obtained:
[1] = target: récepteurs β adrénergiques; experiment: displacement of [^3H]CGP 12177 previously bound on newborn rat cardiomyocytes; type: binding, rats nouveau-nés; settings: read-out: CI50 (the source's name)
From the text: Dans cet exemple, on teste l'affinité du composé 6 marqué avec ^123I vis-à-vis des récepteurs β adrénergiques.
On étudie sur cardiomyocytes de rats nouveau-nés la capacité du composé 6 à déplacer le [^3H]CGP 12177 préalablement fixé sur les récepteurs.

[2] = tested on: récepteurs β adrénergiques; experiment: isolated perfused rat heart (Langendorff), antagonism of isoprenaline on dP/dt max
Method: Dans cet exemple, on teste la propriété pharmacologique antagoniste du composé 6 vis-à-vis des récepteurs β adrénergiques.
L'expérience est conduite sur coeur de rat isolé et perfusé selon la technique de Langendorff.
Après une préperfusion de 25 minutes avec une solution de Krebs-Henseleit, le coeur est perfusé avec de l'isoprénaline à la concentration de 10^-8M pendant 10 minutes; puis avec une solution d'isoprénaline à 10^-8M associée à la molécule à tester à la concentration de 10^-6M.
Si la molécule à tester diminue la dP/dt max en présence d'isoprénaline, on pourra affirmer que cette molécule se comporte comme un antagoniste de l'isoprénaline vis-à-vis des récepteurs β adrénergiques.

[3] = biodistribution study in the mouse (Example 22); type: in vivo, souris; settings: for Biodistribution Coeur / Biodistribution Poumon: souris swiss femelles, injection intraveineuse
Method: L'étude de la biodistribution des radioligands chez la souris, permet d'apprécier l'intensité relative de la fixation cardiaque de la molécule et son évolution dans le temps.
Après marquage à l'iode 123 et purification par CLHP 20µCi environ de produit sont mis en solution dans 5 ml d'une solution : éthanol 20%-sérum physiologique 80%. Après injection intraveineuse de 25 µl de cette solution dans la queue de souris vigiles (souris swiss femelles de 20 à 25 g), celles-ci (5 à chaque fois) sont sacrifiées à différents temps après l'injection. On mesure pour chaque souris les activités cardiaques, hépatique, rénale et pulmonaire. Les résultats sont exprimés en pourcentage de la dose injectée par gramme d'organe.
Le CGP12177 étant la référence, un lot de souris a été étudié après injection de CGP 12177 marqué au tritium.

[4] = radioactivity in organs after injection in the mouse (Example 10); type: in vivo; settings: souris, 329.10^-12 mol
From the text: Dans cet exemple, on teste chez la souris les propriétés du [^123I] - composé 6 comme traceur radioactif pour l'examen du myocarde.
Après injection de 500.10^-12 mol de [^123I]-composé 6, les animaux sont sacrifiés et les organes d'intérêt récupérés et comptés. Le tableau 3 qui suit reporte les valeurs de la radioactivité trouvée dans les organes ou liquides biologiques exprimées en pourcentage de la dose injectée par gramme d'organe. TABLEAU 3 :
Dans le tableau 4 qui suit, on a donné à titre comparatif les résultats obtenus lorsqu'on injecte 329.10^-12 mol de [^3H]CGP 12177.

[5] = octanol-water partition coefficient at room temperature; type: physicochemical; settings: température ambiante
[6] = [^3H]CGP 12177 5.10^-9M, 30 minutes d'incubation, cardiomyocytes de rats nouveau-nés

Work on CC(C)NCC(O)COc1ccc(NC(=O)CCC=CI)cc1 (stereo not shown) [composé 6, 1-[4-(4-iodobut-3-énamido)phénoxy]-3-N-isopropyl aminopropan-2-ol] yielded an IC50 [1, 6] of 2000 nM, an IC50 ([1]; summary, unit inferred) of 2040 nM and a DP/dt max ([2]; Isoprénaline + molécule (10^e+8 min), isoprénaline 10^-8M, test molecule 10^-6M, n=6) of 973±240 mmHg/min. The “pourcentage d'inhibition vis-à-vis de l'isoprénaline” value ([2]; effet antagoniste, summary) was 116% and the “effect on the action of isoprénaline on dP/dt max” value ([2]; isoprénaline 10^-8M + molecule 10^-6M) was “antagonise complètement l'action de l'isoprénaline”.

CC(C)NCC(O)COc1ccc(CC(N)=O)cc1 (stereo not shown) [atenolol, reference compound] gave an IC50 [1, 6] of 19000 nM.

With “(2S)-4 (3-t-butylamino-2-hydroxypropoxy)-benzimidazol-2-one [[^3H]-CGP 12177, reference compound]” the “Biodistribution Coeur” value ([3]; 1 min.) was 9 ± 1,4 pourcentage de la dose injectée par gramme d'organe, the “Biodistribution Poumon” value ([3]; 1 min.) was 66,3 ± 9,2 pourcentage de la dose injectée par gramme d'organe and the “Biodistribution Coeur” value ([3]; 2 min.) was 7,2 ± 0,9 pourcentage de la dose injectée par gramme d'organe. The “Biodistribution Poumon” value ([3]; 2 min.) was 44,3 ± 8,6 pourcentage de la dose injectée par gramme d'organe, the “Biodistribution Coeur” value ([3]; 5 min.) was 7,0 ± 1 pourcentage de la dose injectée par gramme d'organe and the “Biodistribution Poumon” value ([3]; 5 min.) was 37,9 ± 9,3 pourcentage de la dose injectée par gramme d'organe. The “Biodistribution Coeur” value ([3]; 10 min.) was 6,7 ± 1,3 pourcentage de la dose injectée par gramme d'organe, the “Biodistribution Poumon” value ([3]; 10 min.) was 42 ± 8,5 pourcentage de la dose injectée par gramme d'organe and the “activité dans le myocarde (plateau)” value ([3]; souris, plateau dès la 2ème minute après l'injection) was ~7 % de la dose injectée par gramme d'organe. The “radioactivité COEUR” value ([4]; 1 min) was 6,8±4 pourcentage de la dose injectée par gramme d'organe, the “radioactivité POUMON” value ([4]; 1 min) was 26,3±2,1 pourcentage de la dose injectée par gramme d'organe and the “radioactivité COEUR” value ([4]; 2 min) was 6,3±0,3 pourcentage de la dose injectée par gramme d'organe. For the same molecule, the “radioactivité POUMON” value ([4]; 2 min) was 31,6±6,8 pourcentage de la dose injectée par gramme d'organe, the “radioactivité COEUR” value ([4]; 5 min) was 5,9±0,8 pourcentage de la dose injectée par gramme d'organe and the “radioactivité POUMON” value ([4]; 5 min) was 29,7±5,8 pourcentage de la dose injectée par gramme d'organe. For the same molecule, the “radioactivité COEUR” value ([4]; 10 min) was 5,3±0,2 pourcentage de la dose injectée par gramme d'organe, the “radioactivité POUMON” value ([4]; 10 min) was 29±5,1 pourcentage de la dose injectée par gramme d'organe and the “COEFFICIENT DE PARTAGE OCTANOL-EAU” value ([5]; pH=4,2) was 0,0088. The “COEFFICIENT DE PARTAGE OCTANOL-EAU” value ([5]; pH=7,4) was 0,18.
